The record followed here is ChEMBL document CHEMBL4813957, “Antitubercular properties of thiazolidin-4-ones - A review” (Eur J Med Chem, 2021).

The test system of data set [1] is Mycolicibacterium smegmatis. The data set is described as follows: Antimycobacterial activity against Mycobacterium smegmatis ATCC 35797 incubated for 48 hrs by agar dilution method. The format is functional. Background: Agar dilution tests growth on a series of plates holding different concentrations.
Data set [2] concerns Mycobacterium tuberculosis. In words: Antimycobacterial activity against Mycobacterium tuberculosis H37Rv assessed as growth inhibition at 12.5 ug/ml by BACTEC radiometric method relative to control. The format is functional. To be noted: read-out: GI.
In data set [3] the test system is Mycobacterium tuberculosis. The data set is described as follows: Antimycobacterial activity against Mycobacterium tuberculosis H37Rv 27294 by microplate alamar blue assay. The format is functional.
Data set [4] can be described thus: Cytotoxicity against African green monkey Vero cells after 72 hrs by cell titer glo luminescent cell viability assay. The format is cell-based. To be noted: chlorocebus sabaeus.
Data set [5] has as its system Mycobacterium tuberculosis. In words: Antimycobacterial activity against Mycobacterium tuberculosis H37Rv incubated for 7 days by microplate alamar blue assay. Conditions: 168 h, time 7 day. Type of data set: functional. In general terms: Resazurin is reduced to fluorescent resorufin, in cell work by metabolically active cells.
The nature of data set [6]: Inhibition of Mycobacterium tuberculosis Pantothenate Synthetase expressed in Escherichia coli BL21(DE3) cells using beta-alanine as substrate.
The subject of data set [7] is Mycobacterium tuberculosis. In words: Antimycobacterial activity against Mycobacterium tuberculosis H37Ra ATCC 25177 incubated for 7 days by microplate alamar blue assay. The format is functional. Conditions: H37Ra ATCC 25177, 168 h, time 7 day.
Data set [8] can be described thus: Selectivity index, ratio of IC50 for African green monkey Vero cells to MIC for antitubercular activity against Mycobacterium tuberculosis H37Ra ATCC 25177. Type of data set: toxicity.
Data set [9] has as its system Mycobacterium tuberculosis. The data set is described as follows: Bactericidal activity against Mycobacterium tuberculosis H37Ra ATCC 25177 assessed as ratio of MBC to MIC. Type of data set: functional.
The test system of data set [10] is Mycobacterium tuberculosis. The data set is described as follows: Antimycobacterial activity against Mycobacterium tuberculosis H37Rv assessed as growth inhibition at 6.25 ug/ml by microplate alamar blue assay relative to control. The format is functional. To be noted: read-out: GI.
Data set [11] concerns Mycobacterium tuberculosis. The data set is described as follows: Antimycobacterial activity against Mycobacterium tuberculosis by microplate alamar blue assay. Type of data set: functional.
The test system of data set [12] is Mycobacterium tuberculosis. In words: Antimycobacterial activity against Mycobacterium tuberculosis H37Rv. Type of data set: functional.
Data set [13] has as its system Mycobacterium tuberculosis. In words: Antimycobacterial activity against Mycobacterium tuberculosis H37Rv assessed as growth inhibition at 50 ug/ml by Lowenstein-Jensen method relative to control. Type of data set: functional. Conditions: read-out: GI.
The subject of data set [14] is Mycobacterium tuberculosis. The data set is described as follows: Antimycobacterial activity against Mycobacterium tuberculosis. Type of data set: functional.
The subject of data set [15] is Mycobacterium tuberculosis. The data set is described as follows: Antimycobacterial activity against Mycobacterium tuberculosis H37Rv assessed as bacterial growth inhibition at 6.25 ug/ml by BACTEC MGIT method relative to control. Type of data set: functional.
For data set [16], the system named is Mycobacterium tuberculosis. In words: Antimycobacterial activity against Mycobacterium tuberculosis H37Ra ATCC 25177 measured on 8th to 12th day by XTT reduction menadione assay. Type of data set: functional. Conditions: time 8-12 day.
The test system of data set [17] is Mycobacterium tuberculosis. In words: Antimycobacterial activity against Mycobacterium tuberculosis H37Rv measured after 12 to 28 days by Lowenstein-Jensen method. Type of data set: functional. To be noted: time 12-28 day.
In data set [18] the test system is Mycobacterium tuberculosis. In words: Antimycobacterial activity against Mycobacterium tuberculosis H37Rv assessed as growth inhibition at 6.25 ug/ml by BACTEC radiometric method relative to control. Conditions: read-out: GI. Type of data set: functional.
Data set [19] relates to Mycobacterium tuberculosis. The data set is described as follows: Antimycobacterial activity against Mycobacterium tuberculosis H37Rv incubated for 45 days by Lowenstein-Jensen method. The format is functional. To be noted: 1080 h, time 45 day.
The subject of data set [20] is Mycobacterium tuberculosis. In words: Antimycobacterial activity against Mycobacterium tuberculosis H37Rv ATCC27294 measured after 28 days by two-fold serial dilution method. Type of data set: functional. To be noted: H37Rv ATCC 27294, 672 h, time 28 day.
For data set [21], the system named is Mycobacterium tuberculosis. In words: Antimycobacterial activity against Mycobacterium tuberculosis H37Rv ATCC27294 incubated for 7 days by microplate alamar blue assay. The format is functional. To be noted: H37Rv ATCC 27294, 168 h, time 7 day.
In data set [22] the test system is Mycobacterium tuberculosis. The data set is described as follows: Antimycobacterial activity against Mycobacterium tuberculosis ATCC 27286 assessed as zone of inhibition at 20 ug/ml. Conditions: read-out: IZ. The format is functional.
Data set [23] has as its system Mycobacterium tuberculosis. In words: Antimycobacterial activity against Mycobacterium tuberculosis H37Rv ATCC 27294 incubated for 5 days by microplate alamar blue assay. Type of data set: functional. Conditions: H37Rv ATCC 27294, 120 h, time 5 day.
The test system of data set [24] is Mycobacterium tuberculosis. The data set is described as follows: Antimycobacterial activity against Mycobacterium tuberculosis H37Rv by filter paper disc diffusion method. The format is functional. In general terms: A growth-free zone around the sample is the usual read-out of agar diffusion tests.

≈ marks a conversion by molar mass, not a printed value. Where a name gives a salt, the structure may show the parent alone. Bounds are passed on as bounds.

As usually defined, the MIC is the lowest concentration that inhibits growth of the organism. Turning to `CCCCCCCC1SCC(=O)N1NC(=O)c1ccncc1` (configuration not stated), in [1], the MIC was > 25 µg/mL.
As to `Cc1cc(C)c2c(c1)C1(SCC(=O)N1c1ccccc1C(=O)O)C(=O)N2` (configuration not stated), the inhibition of growth at 12.5 µg/mL in data set [2] was 90%.
Usually IC90 stands for the point of the concentration-response curve where the effect stands at 90%. As a reminder, the CC50 is the concentration that lowers cell viability or growth by half. Consider `CCN1C(=O)/C(=C/c2ccc(F)cc2)S/C1=N/NC(=O)c1ccncc1`, for which, in data set [3], the IC90 came out at 2.95 µg/mL (≈ 7.97 µM). In addition, the CC50 at 72 h in [4] is 9.69 µg/mL (≈ 26.2 µM).
In general, IC50 refers to the concentration at which inhibition is half-maximal. In data set [5], `COc1cc(/C=C2\SC(=S)N(CCC(=O)NNC(=O)c3ccncc3)C2=O)cc(OC)c1OC` registered an MIC of 1.55 µM. This compound gave an IC50 in data set [6] of 350 nM.
Take `NC(=S)N/N=C/c1ccc(OC(=O)CC2SC(=O)NC2=O)c(Cl)c1` (configuration not stated): in data set [7], 0.031 µg/mL (≈ 0.0801 µM) was the least that counted as inhibitory (MIC). Further, the selectivity ratio in data set [8] is > 10. Besides, in [9], the Ratio was 2.
As to `O=C1CSC(c2ccc(OCc3ccccc3)cc2)N1NC(=O)C(O)(c1ccccc1)c1ccccc1` (configuration not stated), the inhibition of growth at 6.25 µg/mL in [10] is 98%.
As to `O=C(NN1C(=O)CSC1c1ccccc1O)c1coc2ccc3ccccc3c12` (configuration not stated), the minimum inhibitory concentration (MIC) in data set [11] stood at 50 µg/mL (≈ 124 µM).
`COc1cc(-c2cc(-c3ccc(Cl)cc3)nc(NC(=O)NN3C(=O)CSC3c3ccccc3O)n2)cc(OC)c1OC` (configuration not stated) registered an MIC in data set [12] of 100 µg/mL (≈ 164 µM).
With `CN1C(=O)/C(=C/c2ccccc2F)S/C1=N/NC(=O)c1ccncc1`, in data set [3], the 90% effect level (IC90) was put at 2.95 µg/mL (≈ 8.28 µM). In data set [4], this compound came in with a CC50 at 72 h of 15.5 µg/mL (≈ 43.6 µM).
In [11], `O=C(NN1C(=O)CSC1c1ccc(O)cc1)c1coc2ccc3ccccc3c12` (configuration not stated) displayed an MIC of 50 µg/mL (≈ 124 µM).
In the case of `CC1SC(c2ccc(Cl)cc2)N(NC(=O)C(O)(c2ccccc2)c2ccccc2)C1=O` (configuration not stated), in data set [10], the inhibition of growth at 6.25 µg/mL stood at 99%.
For the compound `O=C(CCN1C(=O)/C(=C/c2ccc([N+](=O)[O-])cc2)SC1=S)NNC(=O)c1ccccc1`, in data set [5], the lowest concentration to inhibit growth (MIC) was 1.71 µM. Moreover, in data set [6], the IC50 was found to be 370 nM.
For the compound `O=C(NCCCN1c2ccccc2Sc2ccccc21)N1C(=O)/C(=C/c2cccc([N+](=O)[O-])c2)SC1c1cccc([N+](=O)[O-])c1` (configuration not stated), in data set [13], the inhibition of growth at 50 µg/mL is 83%.
In the case of `Cc1nc(/N=C2\C(=O)Nc3ccccc32)sc1C(=O)NN1C(=O)CSC1c1ccc(Cl)cc1` (configuration not stated), inhibition of growth in data set [14] (MIC) required 0.78 µM (≈ 0.388 µg/mL).
The compound `NC(=S)N/N=C/c1ccc(OC(=O)/C=C2\SC(=O)NC2=O)cc1` gave an MIC in [7] of 0.031 µg/mL (≈ 0.0885 µM). Besides, the selectivity ratio in [8] is > 10. In addition, the Ratio in [9] was 2.
As to `CCCCCCCCCC1SCC(=O)N1NC(=O)c1ccncc1` (configuration not stated), in data set [1], inhibition of growth (MIC) required 25 µg/mL (≈ 71.5 µM).
Usually inhibition stands for the change of the read-out against control, counted positive when it falls. `Cc1ccc(/C=C2\SC(NCCn3c(C)nc4ccccc4c3=O)=NC2=O)cc1`: the inhibition at 6.25 µg/mL in [15] was 99%.
Compound `Cc1cc(NS(=O)(=O)c2ccc(N3C(=O)CSC3c3ccc(C(F)(F)F)cc3)cc2)no1` (configuration not stated) displayed a 90% effect concentration (IC90) in data set [16] of 0.43 µg/mL (≈ 0.889 µM).
The compound `COc1cc(/C=N/NC(N)=S)ccc1OC(=O)/C=C1\SC(=O)NC1=O` had an MIC in data set [7] of 0.031 µg/mL (≈ 0.0815 µM). In addition, the selectivity ratio in data set [8] is > 10. The Ratio in [9] turned out to be 2.
On to `CCc1ccc(CCOc2ccc(/C=C3\SC(=S)N(CC(=O)Nc4nc5ccc(C)cc5s4)C3=O)cc2)nc1`, for which the minimal inhibitory concentration (MIC) in data set [17] was determined as 25 µg/mL (≈ 43.5 µM).
As for `Cc1ccc(N2C(=O)CSC23C(=O)N(CN2CCOCC2)c2ccc(C)cc23)cc1` (configuration not stated), in [2], the inhibition of growth at 12.5 µg/mL was 90%.
Compound `Cc1cc(NS(=O)(=O)c2ccc(N3C(=O)CSC3c3c(Cl)cccc3Cl)cc2)no1` (configuration not stated) registered an IC90 in data set [16] of 0.43 µg/mL (≈ 0.888 µM).
Regarding `Cc1nc(/N=C2\C(=O)Nc3ccccc32)sc1C(=O)NN1C(=O)CSC1c1ccccc1F` (configuration not stated), in data set [14], the MIC came out at 0.78 µM (≈ 0.376 µg/mL).
Regarding `N#Cc1ccc(C2SCC(=O)N2NC(=O)C(O)(c2ccccc2)c2ccccc2)cc1` (configuration not stated), the inhibition of growth at 6.25 µg/mL in data set [10] came to 98%.
`O=C(NN1C(=O)CSC1c1ccc([N+](=O)[O-])cc1)c1coc2ccc3ccccc3c12` (configuration not stated) displayed an MIC in data set [11] of 50 µg/mL (≈ 115 µM).
Regarding `COc1ccc(C(=O)Nc2ccc(C(=O)NN3C(=O)CSC3c3ccc([N+](=O)[O-])o3)cc2)cc1` (configuration not stated), the inhibition of growth at 6.25 µg/mL in data set [18] was 98%.
Take `Cc1nc2ccccc2c(=O)n1CCNC1=NC(=O)/C(=C/c2ccc([N+](=O)[O-])cc2)S1`: the inhibition at 6.25 µg/mL in data set [15] turned out to be 99%.
In the case of `Cc1cc(NS(=O)(=O)c2ccc(N3C(=O)CSC3c3ccc(F)cc3)cc2)no1` (configuration not stated), the concentration for an effect of 90% (IC90) in data set [16] was determined as 0.43 µg/mL (≈ 0.992 µM).
In turn, `CC[C@@H](CO)NCCN[C@@H](CC)CO` [ETHAMBUTOL HYDROCHLORIDE] had an MIC in [19] of 1.45 µM.
With `NNC(=O)c1ccncc1` [ISONIAZID], the MIC turned out to be 12.5 µg/mL (≈ 91.1 µM) in data set [1]; 0.72 µM (≈ 0.0987 µg/mL) in data set [20]; 0.64 µM (≈ 0.0878 µg/mL) in [19]; 1.6 µg/mL in data set [5]; 0.56 µg/mL (≈ 4.08 µM) in data set [21]; 0.2 µg/mL (≈ 1.46 µM) in [23]. The compound also came in with an MIC in [24] of 1.25 µg/mL (≈ 9.11 µM). Besides, in data set [22], the zone of inhibition at 20 µg/mL was 31 mm.
